The results in this text go back to ChEMBL document CHEMBL3046774, “Synthesis and insect antifeedant activity of precocene derivatives with lactone moiety” (2005).

The source made the active and inactive calls. No cut-off for these calls is given here.

The test system of assay [1] is Aphididae. The experiment in a line: Antifeeding activity against Aphididae (aphids) in compound treated chinese cabbage leaves assessed as settled aphids measured up to 24 hr. Type of assay: functional, organism-based.
Assay [2] concerns Leptinotarsa decemlineata. In words: Antifeeding activity against Leptinotarsa decemlineata adults in compound treated wheat wafer disk assessed as total coefficient of deterrence by feeding deterrent activity test. Type of assay: functional.
In assay [3] the test system is Leptinotarsa decemlineata. The experiment in a line: Antifeeding activity against Leptinotarsa decemlineata adults in compound treated wheat wafer disk assessed as relative coefficient of deterrence by feeding deterrent activity test. Type of assay: functional.
The subject of assay [4] is Sitophilus granarius. The experiment in a line: Antifeeding activity against Sitophilus granarius (granary weevil) adults in compound treated wheat wafer disk assessed as absolute coefficient of deterrence by feeding deterrent activity test. The format is functional.
Assay [5] relates to Leptinotarsa decemlineata. In words: Antifeeding activity against Leptinotarsa decemlineata larvaes in compound treated wheat wafer disk assessed as total coefficient of deterrence by feeding deterrent activity test. Type of assay: functional.
For assay [6], the system named is Leptinotarsa decemlineata. In words: Antifeeding activity against Leptinotarsa decemlineata larvaes in compound treated wheat wafer disk assessed as absolute coefficient of deterrence by feeding deterrent activity test. The format is functional.
For assay [7], the system named is Leptinotarsa decemlineata. The experiment in a line: Antifeeding activity against Leptinotarsa decemlineata larvaes in compound treated wheat wafer disk assessed as relative coefficient of deterrence by feeding deterrent activity test. The format is functional.
The test system of assay [8] is Sitophilus granarius. In words: Antifeeding activity against Sitophilus granarius (granary weevil) adults in compound treated wheat wafer disk assessed as relative coefficient of deterrence by feeding deterrent activity test. Type of assay: functional.
The test system of assay [9] is Sitophilus granarius. The experiment in a line: Antifeeding activity against Sitophilus granarius (granary weevil) adults in compound treated wheat wafer disk assessed as total coefficient of deterrence by feeding deterrent activity test. Type of assay: functional.
In assay [10] the test system is Trogoderma granarium. In words: Antifeeding activity against Trogoderma granarium (khapra beetle) larvaes in compound treated wheat wafer disk assessed as total coefficient of deterrence by feeding deterrent activity test. Type of assay: functional.
Assay [11] relates to Trogoderma granarium. In words: Antifeeding activity against Trogoderma granarium (khapra beetle) larvaes in compound treated wheat wafer disk assessed as relative coefficient of deterrence by feeding deterrent activity test. Type of assay: functional.
Assay [12] relates to Trogoderma granarium. In words: Antifeeding activity against Trogoderma granarium (khapra beetle ) larvaes in compound treated wheat wafer disk assessed as absolute coefficient of deterrence by feeding deterrent activity test. The format is functional.
For assay [13], the system named is Tribolium confusum. In words: Antifeeding activity against Tribolium confusum (confused flour beetle) adults in compound treated wheat wafer disk assessed as total coefficient of deterrence by feeding deterrent activity test. Type of assay: functional.
The subject of assay [14] is Tribolium confusum. In words: Antifeeding activity against Tribolium confusum (confused flour beetle) adults in compound treated wheat wafer disk assessed as relative coefficient of deterrence by feeding deterrent activity test. Type of assay: functional.
Assay [15] deals with Tribolium confusum. In words: Antifeeding activity against Tribolium confusum (confused flour beetle) larvaes in compound treated wheat wafer disk assessed as total coefficient of deterrence by feeding deterrent activity test. The format is functional.
For assay [16], the system named is Tribolium confusum. The experiment in a line: Antifeeding activity against Tribolium confusum (confused flour beetle) adults in compound treated wheat wafer disk assessed as absolute coefficient of deterrence by feeding deterrent activity test. The format is functional.
Assay [17] has as its system Tribolium confusum. The experiment in a line: Antifeeding activity against Tribolium confusum (confused flour beetle) larvaes in compound treated wheat wafer disk assessed as relative coefficient of deterrence by feeding deterrent activity test. Type of assay: functional.
The subject of assay [18] is Tribolium confusum. The experiment in a line: Antifeeding activity against Tribolium confusum (confused flour beetle) larvaes in compound treated wheat wafer disk assessed as absolute coefficient of deterrence by feeding deterrent activity test. Type of assay: functional.
Assay [19] relates to Leptinotarsa decemlineata. In words: Antifeeding activity against Leptinotarsa decemlineata adults in compound treated wheat wafer disk assessed as absolute coefficient of deterrence by feeding deterrent activity test. The format is functional.

For `COc1ccc2c(c1)OC(C)(C)C1=C2OC(=O)C1`, the result in [1] was Active. The FDI was 76.8 in assay [2]; 49.2 in [3]; 19.7 in [4]; 76.7 in assay [5]; 21.7 in assay [6]; 55 in [7]. Besides, the FDI in assay [8] was found to be 94.4; in assay [9], 114.1; in assay [10], 107.6; in assay [11], 73.1; in [12], 34.5; in assay [13], 114.1. In addition, the FDI in assay [14] is reported as 94.4; in [15], 50.6; in [16] it was 19.7; in assay [17], 60.3; in assay [18] it was -6.7; in [19] it was 27.6.
In the case of `COc1cc2c(cc1OC)C1=C(CC(=O)O1)C(C)(C)O2`, the outcome in assay [1] was inactive. The FDI is recorded as 49.6 in [2]; 29.9 in assay [3]; 14.2 in assay [4]; 95.2 in assay [5]; 32.7 in assay [6]; 62.5 in assay [7]. Besides, the FDI is 91.6 in [8]; 105.8 in assay [9]; 116.2 in assay [10]; 85 in assay [11]; 31.2 in assay [12]; 105.8 in assay [13]. Besides, the FDI in assay [14] was determined as 91.6; in assay [15], 149.7; in assay [16], 14.2; in [17], 90.7; in [18], 59; in [19] it was 19.7.
Take `COc1ccc2c(c1)OC(C)(C)C(CC(=O)O)=C2`: the outcome in assay [1] was inactive. For the same compound, the FDI in assay [2] worked out at 94.1; in assay [3], 70.9; in assay [4] it was 1.8; in [5] it was 98.8; in [6], 35.2; in [7], 63.6. Also, the FDI in [8] was determined as 95.7; in assay [9], 97.5; in assay [10], 108; in assay [11], 86; in assay [12], 22; in [13], 97.5. The FDI is on record as 95.7 in [14]; 80.2 in assay [15]; 1.8 in [16]; 86.4 in assay [17]; -6.2 in [18]; 23.2 in assay [19].
In the case of `COc1cc2c(cc1OC)OC(C)(C)C(CC(=O)O)=C2`, the outcome in assay [1] was inactive. For the same compound, the FDI in [2] came to 98.1; in assay [3], 63.7; in assay [4] it was 15; in assay [5], 96.3; in [6], 17.2; in assay [7], 79.1. The FDI was found to be 88.9 in [8]; 103.9 in assay [9]; 97.4 in assay [10]; 85.5 in [11]; 11.9 in [12]; 103.9 in [13]. The FDI in [14] stood at 88.9; in assay [15], 113.6; in assay [16] it was 15; in assay [17], 73.1; in assay [18], 40.5; in assay [19] it was 34.4.
Regarding `COc1cc2c(cc1OC)[C@@H]1OC(=O)C[C@]1(I)C(C)(C)O2` (racemic), in assay [1], the outcome was inactive. For the same compound, the FDI in assay [2] worked out at 176.2; in [3], 89.1; in assay [4] it was 3.9; in [5], 132; in assay [6], 41.4; in assay [7], 90.6. Moreover, the FDI amounted to 89.5 in assay [8]; 93.4 in assay [9]; 120.1 in [10]; 80.5 in [11]; 39.6 in [12]; 93.4 in assay [13]. In addition, the FDI in assay [14] came to 89.5; in assay [15], 147.8; in assay [16] it was 3.9; in assay [17], 93.6; in assay [18], 54.2; in assay [19], 87.1.
As for `COc1ccc2c(c1)OC(C)(C)[C@@]1(I)CC(=O)O[C@@H]21` (racemic), the outcome in assay [1] was inactive. Further, the FDI in assay [2] stood at 143; in [3], 81.4; in assay [4], 21.1; in [5], 134.1; in assay [6], 38.3; in [7], 95.8. In addition, the FDI in assay [8] came out at 93.4; in assay [9], 114.5; in assay [10], 111.4; in assay [11], 79.8; in assay [12], 31.6; in assay [13], 114.5. Also, the FDI in [14] came to 93.4; in assay [15], 94.2; in assay [16] it was 21.1; in assay [17] it was 77.5; in [18] it was 16.7; in assay [19], 61.6.
For `COc1cc2c(cc1OC)OC(C)(C)C=C2` [PROCOCENE II], the result in assay [1] was Active. Moreover, the FDI in assay [2] stood at 116; in [3], 71.8; in [4], 100; in assay [5] it was 124.1; in assay [6] it was 32.9; in assay [7] it was 91.2. For the same compound, the FDI is given as 94.2 in assay [8]; 194.2 in assay [9]; 198.6 in assay [10]; 100 in [11]; 98.6 in assay [12]; 194.2 in [13]. Also, the FDI turned out to be 94.2 in assay [14]; 165.7 in assay [15]; 100 in assay [16]; 97.1 in assay [17]; 68.6 in [18]; 44.2 in assay [19].
Regarding `COc1ccc2c(c1)OC(C)(C)C=C2` [PROCOCENE I], the result in assay [1] was Active. In addition, the FDI in assay [2] was 115.7; in assay [3], 73.8; in assay [4] it was 55.2; in assay [5] it was 164.6; in assay [6], 77.8; in [7], 86.8. Further, the FDI in assay [8] was determined as 83.8; in assay [9], 139; in [10], 80.1; in assay [11], 38.3; in assay [12], 41.8; in [13] it was 139. The FDI in assay [14] is listed as 83.8; in assay [15], 119.2; in assay [16], 55.2; in assay [17], 64.1; in assay [18] it was 55.1; in assay [19], 41.9.
